Results reported in publication PMC3412150 (Circulation research, 2012).
pIC50: −log10 of the molar value.

Target: Nav1.8 (SCN10A) (Homo sapiens, UniProt Q9Y5Y9)
Assay: whole-cell voltage clamp, transfected ND7/[…] cells
Format: cell-based

Sequence of Nav1.8 (SCN10A) (Q9Y5Y9 whole entry): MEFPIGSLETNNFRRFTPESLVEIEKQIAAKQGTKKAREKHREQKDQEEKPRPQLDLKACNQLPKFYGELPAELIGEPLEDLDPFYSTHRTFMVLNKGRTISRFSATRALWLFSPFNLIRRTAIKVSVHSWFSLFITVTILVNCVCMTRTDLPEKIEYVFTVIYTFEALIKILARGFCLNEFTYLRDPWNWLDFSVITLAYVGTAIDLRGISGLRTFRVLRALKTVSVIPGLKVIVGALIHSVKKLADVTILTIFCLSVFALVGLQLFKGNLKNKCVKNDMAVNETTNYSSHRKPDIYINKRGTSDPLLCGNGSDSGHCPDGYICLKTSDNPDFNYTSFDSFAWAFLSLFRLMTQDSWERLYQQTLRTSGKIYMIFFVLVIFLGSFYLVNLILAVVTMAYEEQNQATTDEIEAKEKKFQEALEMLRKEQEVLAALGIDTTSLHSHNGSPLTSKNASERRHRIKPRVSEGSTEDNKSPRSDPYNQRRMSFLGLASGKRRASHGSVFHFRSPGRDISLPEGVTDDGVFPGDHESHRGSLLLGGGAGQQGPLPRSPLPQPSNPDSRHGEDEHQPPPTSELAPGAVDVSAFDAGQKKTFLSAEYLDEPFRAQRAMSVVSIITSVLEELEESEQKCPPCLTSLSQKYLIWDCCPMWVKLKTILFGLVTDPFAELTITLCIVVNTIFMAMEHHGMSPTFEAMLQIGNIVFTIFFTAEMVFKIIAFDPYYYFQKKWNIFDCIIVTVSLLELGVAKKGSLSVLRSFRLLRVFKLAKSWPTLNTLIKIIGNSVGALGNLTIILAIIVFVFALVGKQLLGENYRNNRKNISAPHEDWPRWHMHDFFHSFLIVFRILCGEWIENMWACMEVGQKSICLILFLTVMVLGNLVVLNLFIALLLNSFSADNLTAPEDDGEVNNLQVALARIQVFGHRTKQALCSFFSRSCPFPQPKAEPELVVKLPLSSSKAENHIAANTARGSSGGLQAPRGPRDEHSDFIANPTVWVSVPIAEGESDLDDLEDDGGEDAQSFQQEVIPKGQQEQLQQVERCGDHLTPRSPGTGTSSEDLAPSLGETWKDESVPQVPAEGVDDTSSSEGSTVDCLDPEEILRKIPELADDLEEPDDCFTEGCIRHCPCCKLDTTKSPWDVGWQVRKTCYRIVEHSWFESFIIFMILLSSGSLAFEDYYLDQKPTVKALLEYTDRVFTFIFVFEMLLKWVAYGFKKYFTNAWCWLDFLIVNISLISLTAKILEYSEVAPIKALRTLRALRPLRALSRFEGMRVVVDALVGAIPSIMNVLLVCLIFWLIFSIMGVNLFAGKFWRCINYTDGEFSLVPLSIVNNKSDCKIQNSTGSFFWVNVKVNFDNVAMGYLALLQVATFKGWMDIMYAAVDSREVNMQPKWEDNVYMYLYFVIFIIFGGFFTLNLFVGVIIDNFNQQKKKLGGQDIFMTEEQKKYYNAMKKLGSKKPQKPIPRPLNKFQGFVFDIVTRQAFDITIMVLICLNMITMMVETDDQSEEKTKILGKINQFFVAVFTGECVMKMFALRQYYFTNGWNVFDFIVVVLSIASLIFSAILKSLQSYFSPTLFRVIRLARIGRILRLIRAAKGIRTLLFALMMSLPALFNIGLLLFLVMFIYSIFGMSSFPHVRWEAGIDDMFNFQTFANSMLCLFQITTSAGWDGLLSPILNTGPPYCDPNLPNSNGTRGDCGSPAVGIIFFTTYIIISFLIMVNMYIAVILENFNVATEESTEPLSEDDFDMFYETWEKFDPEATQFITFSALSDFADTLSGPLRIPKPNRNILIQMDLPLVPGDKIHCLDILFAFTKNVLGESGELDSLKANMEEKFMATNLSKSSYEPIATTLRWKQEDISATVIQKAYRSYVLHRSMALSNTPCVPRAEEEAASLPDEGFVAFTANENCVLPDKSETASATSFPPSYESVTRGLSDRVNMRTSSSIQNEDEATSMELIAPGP

In the case of `COc1cc(NC(=O)c2ccc(-c3ccc(Cl)cc3)o2)cc(OC)c1` [A-803467], the pIC50 was roughly 8.00.
